Measurements from patent US20110217391A1, “MATRIX METALLOPROTEASE (MMP) PRODUCTION INHIBITOR” (FUJIFILM CORPORATION, priority 2010, published 2011).
Where two headings read alike, the source gives them in different places.

Tests used:
[1] = tested on: Pellicle-derived human normal keratinocytes; details: 48 h
Protocol: Pellicle-derived human normal keratinocytes were inoculated into a 10% (v/v) FBS-containing MEM medium on a 12-well culture plate, at a cell density of 1.9×10^4 cells/well. Thereafter, the cells were pre-cultured for 24 hours according to an ordinary method. […] After completion of the culture, the cells were washed with PBS, and a survival test was then carried out according to a common method using MTT. Specifically, a 0.5 mg/mL MTT solution was added to the culture plate, resulting in a concentration of 500 μL/well, and it was then incubated in an incubator for 2 hours. Thereafter, 1.5 mL of dimethyl sulfoxide was added thereto, and the absorbance at a wavelength of 570 nm was then measured. The obtained absorbance was used as an indicator for the number of surviving cells. The number of surviving cells obtained in the case of not adding an evaluation sample was defined as 100, and the cell survival percentage (%) obtained in the case of adding an evaluation sample was obtained.

[2] = tested on: matrix metalloprotease 9; test: Suppression of production of matrix metalloprotease 9 on epidermis, TGF β1 or β2 induction, ELISA of culture supernatant; type: cell-based, human; details: keratinocytes, TGF β1 or β2 5 ng/ml, 0.45 μg/ml, 48 hours
Protocol: Thereafter, the medium was exchanged with a test medium which had been prepared by adding TGF (transforming growth factor) β1 or β2 which is known to be released as a matrix metalloprotease 9 production promoting factor from cells upon UV irradiation, to a 1% (v/v) FBS-containing MEM medium to a final concentration of 5 ng/ml, so as to produce a matrix metalloprotease 9 induction test system. […] Specifically, the concentration of a grape extract was set at 100 μg/ml, and the concentration of a Salacia plant extract (the present invention) was set at 100 μg/ml. These test substances were each added to a test medium, and the medium was then exchanged with a fresh one. Thereafter, culture was carried out for 48 hours. After completion of the culture, a culture supernatant was recovered. The recovered supernatant was assayed according to the ELISA method with Matrix Metalloprotease-9, Human, Assay (GE Healthcare, RPN2614). Measurement was carried out in accordance with protocols provided by the distributer, and the value at a wavelength of 630 nm was measured using a wavelength-tunable microplate reader, Sunrise Rainbow Thermo (SUNRISE) and was then quantified. […]

| SMILES | cell survival percentage ([1]; 0.15 μg/ml) | cell survival percentage ([1]; 0.45 μg/ml) | effect of suppressing the production of matrix metalloprotease 9 (MMP9 protein expression level) [2] |
| --- | --- | --- | --- |
| CC1=C(/C=C/C(C)=C/C=C/C(C)=C/C(=O)O)C(C)(C)CCC1 [retinoic acid] | ≥ 70% | – | – |
| C[C@H]1[C@H](C)CC[C@]2(C(=O)O)CC[C@]3(C)C(=CC[C@@H]4[C@@]5(C)CC[C@H](O)C(C)(C)[C@@H]5CC[C@]43C)[C@H]12 [ursolic acid] | – | ≥ 70% | did not have the effect of suppressing the production of matrix metalloprotease 9 |
